Measured values published in the CheMixHub viscosity set.
Several values for one entry are separate records, joined by “and”; a condition that tells them apart may be missing. Equal values may be shown once. ± gives the uncertainty stated by the source.

Assay: xn = mol fraction of the nth substance listed

ClC(Cl)(Cl)Cl + CC(=O)O
Conditions | viscosity [mPa·s]
298.15 K, 101 kPa, x2 = 0.1 | 0.84 ± 0.022
298.15 K, 101 kPa, x2 = 0.22 | 0.822 ± 0.022
298.15 K, 101 kPa, x2 = 0.31 | 0.811 ± 0.021
298.15 K, 101 kPa, x2 = 0.39 | 0.808 ± 0.021
298.15 K, 101 kPa, x2 = 0.63 | 0.832 ± 0.022
298.15 K, 101 kPa, x2 = 0.72 | 0.863 ± 0.023
298.15 K, 101 kPa, x2 = 0.79 | 0.9 ± 0.024
298.15 K, 101 kPa, x2 = 0.91 | 1.007 ± 0.026
298.15 K, 101.33 kPa, x2 = 0.214 | 0.82 ± 0.0057
298.15 K, 101.33 kPa, x2 = 0.418 | 0.804 ± 0.0056
298.15 K, 101.33 kPa, x2 = 0.608 | 0.816 ± 0.0057
298.15 K, 101.33 kPa, x2 = 0.805 | 0.92 ± 0.0064
303.15 K, 101 kPa, x1 = 0.0697 | 1.071 ± 0.028
303.15 K, 101 kPa, x1 = 0.2172 | 0.995 ± 0.026
303.15 K, 101 kPa, x1 = 0.7482 | 0.894 ± 0.024
313.15 K, 101 kPa, x1 = 0.0697 | 0.982 ± 0.026
313.15 K, 101 kPa, x1 = 0.2172 | 0.876 ± 0.023
313.15 K, 101 kPa, x1 = 0.7482 | 0.791 ± 0.021
323.15 K, 101 kPa, x1 = 0.0697 | 0.917 ± 0.024
323.15 K, 101 kPa, x1 = 0.2172 | 0.804 ± 0.021
323.15 K, 101 kPa, x1 = 0.7482 | 0.697 ± 0.018

[Cl-].[Cl-].[Cu+2] + O
viscosity [mPa·s]
Conditions | x1 = 0.000905 | x1 = 0.00112 | x1 = 0.002247 | x1 = 0.002718 | x1 = 0.004484 | x1 = 0.00453 | x1 = 0.006344 | x1 = 0.008159 | x1 = 0.008927 | x1 = 0.0177
308.15 K, 101.3 kPa | – | 0.739 ± 0.019 | 0.7708 ± 0.02 | – | 0.8088 ± 0.021 | – | – | – | 0.879 ± 0.023 | 0.9692 ± 0.025
308.15 K, 101.33 kPa | 0.7395 ± 0.014 | – | – | 0.7712 ± 0.015 | – | 0.8092 ± 0.015 | 0.8409 ± 0.016 | 0.879 ± 0.016 | – | –
313.15 K, 101.3 kPa | – | 0.6675 ± 0.018 | 0.697 ± 0.018 | – | 0.7375 ± 0.019 | – | – | – | 0.794 ± 0.021 | 0.8595 ± 0.022
313.15 K, 101.33 kPa | 0.668 ± 0.013 | – | – | 0.6975 ± 0.013 | – | 0.738 ± 0.014 | 0.762 ± 0.014 | 0.7945 ± 0.015 | – | –
323.15 K, 101.3 kPa | – | 0.577 ± 0.016 | 0.601 ± 0.016 | – | 0.637 ± 0.017 | – | – | – | 0.6967 ± 0.018 | 0.7595 ± 0.02
323.15 K, 101.33 kPa | 0.5775 ± 0.011 | – | – | 0.6015 ± 0.012 | – | 0.6375 ± 0.012 | 0.6685 ± 0.013 | 0.6972 ± 0.013 | – | –

CCOC(=O)c1ccccc1O + CCCCCOC(C)=O
Conditions | viscosity [mPa·s]
298.15 K, 101 kPa, x2 = 0.5 | 1.045 ± 0.01

CCC(C)(O)CC + CCO
298.15 K, 101.33 kPa
Conditions | viscosity [mPa·s]
x2 = 0.1124 | 3.619 ± 0.029
x2 = 0.2131 | 3.405 ± 0.027
x2 = 0.299 | 3.345 ± 0.027
x2 = 0.4102 | 3.232 ± 0.026
x2 = 0.5116 | 3.007 ± 0.024
x2 = 0.6138 | 2.632 ± 0.021
x2 = 0.7104 | 2.203 ± 0.017
x2 = 0.7975 | 1.837 ± 0.015
x2 = 0.901 | 1.405 ± 0.011

CCc1ccc(O)cc1 + C[N+](C)(C)CCO.[Cl-]
298.15 K, 101.33 kPa
Conditions | viscosity
x1 = 0.7 | 143.3 ± 54 mPa·s
x1 = 0.8 | 84.18 ± 26 mPa·s and 62.12 ± 16 mPa·s and 53.08 ± 13 mPa·s
x1 = 0.9 | 49.12 ± 11 mPa·s

[Br-].[Li+] + CO
101 kPa
Conditions | viscosity [mPa·s]
293.15 K, x2 = 0.7334 | 86.34 ± 8.7
293.15 K, x2 = 0.7699 | 40.18 ± 4.1
293.15 K, x2 = 0.804 | 20.18 ± 2
293.15 K, x2 = 0.8367 | 10.43 ± 1
293.15 K, x2 = 0.8645 | 6.343 ± 0.64
293.15 K, x2 = 0.8908 | 4.223 ± 0.42
303.15 K, x2 = 0.6926 | 102.1 ± 10
303.15 K, x2 = 0.7326 | 55.05 ± 5.5
303.15 K, x2 = 0.7698 | 28.35 ± 2.9
303.15 K, x2 = 0.8039 | 15.05 ± 1.5
303.15 K, x2 = 0.836 | 8.725 ± 0.88
303.15 K, x2 = 0.8642 | 5.422 ± 0.54
303.15 K, x2 = 0.8908 | 3.697 ± 0.37
313.15 K, x2 = 0.6913 | 65.32 ± 6.6
313.15 K, x2 = 0.7324 | 35.2 ± 3.5
313.15 K, x2 = 0.7697 | 19.67 ± 2
313.15 K, x2 = 0.8039 | 11.37 ± 1.1
313.15 K, x2 = 0.836 | 7.147 ± 0.72
313.15 K, x2 = 0.8644 | 4.634 ± 0.46
313.15 K, x2 = 0.8908 | 3.566 ± 0.36
323.15 K, x2 = 0.691 | 42.31 ± 4.3
323.15 K, x2 = 0.7323 | 24.55 ± 2.5
323.15 K, x2 = 0.7696 | 14.41 ± 1.4
323.15 K, x2 = 0.8039 | 9.136 ± 0.92
323.15 K, x2 = 0.836 | 5.438 ± 0.55
323.15 K, x2 = 0.8644 | 3.976 ± 0.4
